Results taken from PMC4102551, “Screening and Characterisation of Antimicrobial Properties of Semisynthetic Betulin Derivatives” (PLoS ONE, 2014).
“And” between values parts separate entries of the source, which are not always exact repeats. Equal values may be shown once. Read-outs that look alike come from different tables or passages of the source.

Legend:
P. aeruginosa ATCC 27853 = assay: Broth microdilution assay, P. aeruginosa; type: cell-based, Pseudomonas aeruginosa; details: for inhibition at 50 µM: Pseudomonas aeruginosa, ATCC27853, 24 h, read-out: Inhibitory effect (%) P. aeruginosa ATCC 27853; for Inhibitory effect (%) P. aeruginosa ATCC 27853: 50 µM, 24 h, inhibition of growth, mean ± SD
Experimental: (§1) Clinically used antimicrobial agents were selected based on international guidelines for antimicrobial testing and were utilised as reference compounds in the antimicrobial assays. The compounds were purchased from Sigma, Fluka and ICN Biomedicals. Stock solutions of the reference compounds were prepared either in double distilled sterile MilliQ water or in DMSO. Water solutions were sterilised through a 0.22 µm filter (VWR International). […] During the primary screening, these reference compounds were used as positive controls at the determined MIC on every plate.
(§2) Gram-negative strains Escherichia coli (ATCC 25922), Enterobacter aerogenes (ATCC 13048) and Pseudomonas aeruginosa (ATCC 27853), Gram-positive strains Staphylococcus aureus (ATCC 25923) and Enterococcus faecalis (ATCC 29212), and fungal strain Candida albicans (ATCC 90028) were obtained from Microbiologics Inc., and used for the antimicrobial screening. Strains were selected according to the guidelines set for clinical laboratories by Clinical and Laboratory Standards Institute [CLSI, formerly National Committee on Clinical Laboratory Standards [22]] and the European Committee on Antimicrobial Susceptibility Testing (EUCAST). Bacterial strains were grown on Mueller Hinton II Agar (MHA) (BBL, BD) and Mueller Hinton II broth (MHB) (BBL, BD), whereas Candida was initiated on Sabouraud Dextrose Agar (SDA) (Difco, BD) plates. Media were prepared into MilliQ water according to manufacturer’s instruction and autoclaved at 121°C for 15 min. Bacteria were plated on MHA plates and incubated at 37°C for 16–18 h. Bacterial suspension for the assays was prepared by subculturing the bacteria into MHB and by incubating at 37°C for 16–20 h at 110 rpm prior to the assay. Candida strain was grown on SDA plates at 27°C for 16–18 h and suspended into sterile 0.9% saline for the assay.
(§3) Antimicrobial screening assays were performed by broth microdilution method following the guidelines of CLSI and EUCAST. Bacterial suspensions were prepared as mentioned earlier and diluted with MHB to obtain a final inoculum of 5×10^5 colony-forming units (cfu)/mL in the assay for all the bacteria (based on OD620 values previously calibrated against plate counts). Candida suspension was prepared into sterile 0.9% saline solution as stated earlier. […] Assays were carried out in clear 96-well microtitre plates and initiated by dispensing an equal volume of microbial suspension and sample solution diluted into the assay medium into the wells. The plates were incubated for 24 h at 37°C (for Candida the incubation was at 35°C for 48 h) with agitation. Absorbance was measured at 620 nm with Victor plate reader (Wallac 1420, Perkin Elmer) at 0, 4 and 24 h with the bacteria, and at 0, 24 and 48 h with Candida. The antimicrobial activity of the samples was calculated from the absorbance values by comparing to the controls, and expressed as a percentage inhibition of growth. All the betulin derivatives were first assayed at the single concentration of 50 µM (two separate experiments, each with three replicates). […] The MIC90 value was expressed as the lowest concentration of compound that inhibited the microbial growth by >90%. The MIC90 results are means of three replicates from two separate experiments.

E. faecalis ATCC 29212 = assay: Broth microdilution assay, E. faecalis; type: cell-based, Enterococcus faecalis; details: 50 µM, 24 h, inhibition of growth, mean ± SD; for inhibition at 50 µM: Enterococcus faecalis, ATCC29212, 24 h, read-out: Inhibitory effect (%) E. faecalis ATCC 29212
Experimental: as §1, §2, §3

C. albicans ATCC 90028 = assay: Broth microdilution assay, C. albicans; type: cell-based, Candida albicans; details: for inhibition at 50 µM: Candida albicans, ATCC90028, 48 h, read-out: Inhibitory effect (%) C. albicans ATCC 90028; for Inhibitory effect (%) C. albicans ATCC 90028: 50 µM, 48 h at 35°C, inhibition of growth, mean ± SD
Experimental: as §1, §2, §3

E. aerogenes ATCC 13048 = assay: Broth microdilution assay, E. aerogenes; type: cell-based, Enterobacter aerogenes; details: 50 µM, 24 h, inhibition of growth, mean ± SD; for inhibition at 50 µM: Klebsiella aerogenes, ATCC13048, 24 h, read-out: Inhibitory effect (%) E. aerogenes ATCC 13048
Experimental: as §1, §2, §3

in vitro = type: cell-based, human; details: human
Experimental: (§4) Huh-7 cells (derived from human hepatocellular carcinoma) were obtained as a gift from Prof. Ralf Bartenschlager (University of Heidelberg, Germany) and used for assessing the cytotoxicity against mammalian cells. HL cells (a heteroploid cell line used for propagating respiratory viruses) were used as a host cell line in the host-pathogen co-culture assay. […] Both cell lines were cultured at 37°C, 5% CO2 and 95% humidity.
(§5) The effect of the betulin derivatives on metabolic activity of Huh-7 cells was evaluated by measuring the intracellular ATP content of the cells after 24 h exposure to the compounds. In brief, cells were seeded at 20000 cells/well on white-walled microplates (PerkinElmer) and incubated at 37°C, 5% CO2 and 95% humidity. After culturing the cells overnight, the medium was replaced with the assay media (5% FBS) containing the sample and the cells were incubated for 24 h. Polymyxin B sulphate (15000 IU/mL) was used as a positive control. Following the incubation period, Promega’s CellTiter-Glo Cell Viability Assay was used to determine the intracellular ATP levels according to the manufacturer’s instructions. Cells were washed with 100 µL 6.7 mM PBS, pH 7.4 and 50 µL of fresh assay media and 50 µL of the CellTiter-Glo reagent were added into the wells. After 2 min shaking, followed by 10 min incubation at RT, luminometric signal was measured using Varioskan Flash plate reader (Thermo Fisher Scientific).

S. aureus ATCC 25923 = assay: Broth microdilution assay, S. aureus; type: cell-based, Staphylococcus aureus; details: 50 µM, 24 h, inhibition of growth, mean ± SD; for inhibition at 50 µM: Staphylococcus aureus, ATCC25923, 24 h, read-out: Inhibitory effect (%) S. aureus ATCC 25923
Experimental: as §1, §2, §3

E. coli ATCC 25922 = assay: Broth microdilution assay, E. coli; type: cell-based, Escherichia coli; details: for inhibition at 50 µM: Escherichia coli, ATCC25922, 24 h, read-out: Inhibitory effect (%) E. coli ATCC 25922; for Inhibitory effect (%) E. coli ATCC 25922: 50 µM, 24 h, inhibition of growth, mean ± SD
Experimental: as §1, §2, §3

Huh-7 cells = assay: in vitro; type: cell-based, human; details: 50 µM, 24 h exposure, ATP content, 5% FBS
Experimental: as §4, §5

[1] = 50 µM, 24 h exposure, ATP content, 5% FBS, read-out: Cytotoxicity (%) Huh-7 cells

| SMILES | inhibition at 50 µM (P. aeruginosa ATCC 27853) | Inhibitory effect (%) E. faecalis ATCC 29212 (E. faecalis ATCC 29212) | inhibition at 50 µM (E. faecalis ATCC 29212) | inhibition at 50 µM (C. albicans ATCC 90028) | inhibition at 50 µM (E. aerogenes ATCC 13048) | cytotoxicity at 24 h, 50 µM (in vitro; [1]) | inhibition at 50 µM (S. aureus ATCC 25923) | inhibition at 50 µM (E. coli ATCC 25922) | cytotoxicity at 24 h, 50 µM (in vitro; Cytotoxicity (%) Huh-7 cells) | Inhibitory effect (%) P. aeruginosa ATCC 27853 (P. aeruginosa ATCC 27853) | Inhibitory effect (%) C. albicans ATCC 90028 (C. albicans ATCC 90028) | Inhibitory effect (%) E. aerogenes ATCC 13048 (E. aerogenes ATCC 13048) | Cytotoxicity (%) Huh-7 cells (Huh-7 cells) | Inhibitory effect (%) S. aureus ATCC 25923 (S. aureus ATCC 25923) | Inhibitory effect (%) E. coli ATCC 25922 (E. coli ATCC 25922) |
| --- | --- | --- | --- | --- | --- | --- | --- | --- | --- | --- | --- | --- | --- | --- | --- |
| CC(=O)OCC12CCC3(C(C)C)C1=C1C(CC4C5(C)CCC(OC(C)=O)C(C)(C)C5CCC4(C)C1(C)CC2)n1c(=O)n(-c2cccc([N+](=O)[O-])c2)c(=O)n13 (centres unmarked) [Compound 38] | 7.6 ± 1.4% | 74% and 73.9±1.4% | > 70% | -13.8% | 19.3 ± 3% | 8.3 ± 3.9% | 6.7 ± 1.5% | 8.8 ± 2.6% | – | – | – | – | – | – | – |
| CC(C)[C@@H]1CC[C@]2(C(=O)O)CC[C@]3(C)[C@H](CC[C@@H]4[C@@]5(C)CCC(=O)C(C)(C)[C@@H]5CC[C@]43C)[C@@H]12 [Compound 24, dihydrobetulonic acid] | 4.9 ± 0.5% | 56.6±2.0% | 57% | 54.9 ± 8.3% | 16.8 ± 5.4% | – | 15.1 ± 3.7% | 6.2 ± 4.5% | 13 ± 10.3% | – | – | – | – | – | – |
| C=C(C)[C@@H]1CC[C@]2(C(=O)OC)CC[C@]3(C)[C@H](CC[C@@H]4[C@@]5(C)CC[C@H](O)C(C)(C)[C@@H]5CC[C@]43C)[C@@H]12 [Compound 20, betulinic acid methyl ester] | – | 51% and 51.1±0.6% | – | – | – | – | – | – | – | 8.6±2.5% | 34.3±5.6% | 39% and 38.9±1.5% | 33.7±7.0% | 5.3±4.2% | 13.5±8.9% |
| C=C(C)C1CCC2(CO)CCC3(C)C(CCC4C5(C)CCC(OC(C)=O)C(C)(C)C5CCC43C)C12 (centres unmarked) [Compound 12] | – | 54.7±7.9% | – | – | – | – | – | – | – | 1.8±1.2% | -18.0±27.4% | 14.5±1.3% | 3.8±14.1% | -16.3±7.4% | 1.0±5.0% |
| CC(=O)OCC12CCC3(C(C)C)C1=C1C(CC4C5(C)CCC(OC(C)=O)C(C)(C)C5CCC4(C)C1(C)CC2)n1c(=O)n(-c2ccc4c(c2)CCC4)c(=O)n13 (centres unmarked) [Compound 36] | – | 62.0±1.9% | – | – | – | – | – | – | – | 5.8±0.7% | 10.7±4.8% | 14.5±1.3% | 7.9±2.2% | 6.1±1.7% | 2.6±2.1% |
| CC(=O)OCC12CCC3(C(C)C)C1=C1C(CC4C5(C)CCC(OC(C)=O)C(C)(C)C5CCC4(C)C1(C)CC2)n1c(=O)n(-c2ccc4c(c2)OCO4)c(=O)n13 (centres unmarked) [Compound 35] | 5.5 ± 1% | 70.0±0.9% | > 70% | 4.4 ± 12.9% | 14.2 ± 1.6% | -0.1% | 5.9 ± 1.2% | 3.4 ± 3.1% | – | – | – | – | – | – | – |
| C=C(C)[C@@H]1CC[C@]2(C#N)CC[C@]3(C)[C@H](CC[C@@H]4[C@@]5(C)CC[C@H](OC(C)=O)C(C)(C)[C@@H]5CC[C@]43C)[C@@H]12 [Compound 33] | – | 49% and 49.2±2.2% | – | – | – | – | – | – | – | 3.6±3.9% | -51.2±39.1% | 11.4±4.2% | 21.6±17.0% | 20.5±52.1% | -4.6±3.3% |
| C=C(C)[C@@H]1CC[C@]2(C#N)CC[C@]3(C)[C@H](CC[C@@H]4[C@@]5(C)CCC(=NOC(C)=O)C(C)(C)[C@@H]5CC[C@]43C)[C@@H]12 [Compound 32] | – | 57% and 56.6±7.0% | – | – | – | – | – | – | – | 5.7±1.7% | -43.8±12.6% | 12.0±3.0% | -7.2±3.0% | 5.5±1.9% | 5.5±1.5% |
| C=C(C)[C@@H]1CC[C@]2(COC(=O)COc3cc(C(C)C)ccc3C)CC[C@]3(C)[C@H](CC[C@@H]4[C@@]5(C)CC[C@H](O)C(C)(C)[C@@H]5CC[C@]43C)[C@@H]12 [Compound 4, betulinyl 28-carboxymethoxycarvacrolate] | 3 ± 3% | 72% and 72.3±4.0% | > 70% | 31.4 ± 9.1% | 9.9 ± 3.3% | – | -17.2% | -1.2% | -4.6% | – | – | – | – | – | – |
| CCCC(=O)OCC12CCC3(C(C)C)C1=C1C(CC4C5(C)CCC(OC(=O)CCC)C(C)(C)C5CCC4(C)C1(C)CC2)n1c(=O)n(C)c(=O)n13 (centres unmarked) [Compound 46] | – | 44.8±2.8% | – | – | – | – | – | – | – | 5.2±0.7% | -56.1±14.6% | 7.4±5.9% | 6.4±2.9% | 2.5±3.1% | -2.1±6.4% |
